In PubChem BioAssay AID434987 (Southern Research Specialized Biocontainment Screening …, 2010) one finds IC50 and IC90 data, which are given here for 18 compounds.

The assay deals with M. tuberculosis H37Rv growth inhibition with meropenem. Briefly: dose response, H37Rv, with and without meropenem (AID 434987).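 Also: growth over 7 days at 37 °C before Alamar Blue read on day 9.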
[1] abbreviates: M. tuberculosis H37Rv growth inhibition, measured here: IC50 without meropenem.
Where [2] appears, read: M. tuberculosis H37Rv growth inhibition, measured here: IC90 without meropenem.
Where [3] appears, read: measured here: IC90 with meropenem.

Calls of active or inactive are those of the source. No rule for the calls is given here. Where only a bound is given, the exact number is not on record here.

The IC50 is the concentration that inhibits the measured activity by half. The IC90 is the concentration needed for an effect of 90%. As to `O=S1(=O)CCO[C@H]2Cc3ccccc3[C@H]2N1Cc1ccccc1`, the IC50 was > 100 µM (inactive). Under setting [1], the 50% inhibitory concentration (IC50) is more than 100 µM. The same compound had an IC90 under setting [2] of more than 100 µM. The same compound had a 90% effect concentration (IC90) under setting [3] of more than 100 µM.

For `O=C(CCl)N(c1ccccc1)C1CCS(=O)(=O)C1` (configuration not stated), the IC50 was 5.77 µM. Further, the 50% inhibitory concentration (IC50) under setting [1] was found to be 18.2 µM. Also, the IC90 under setting [2] came to 55.6 µM. Moreover, the IC90 under setting [3] stood at 13.9 µM.

`O=C(NCc1nc2ncc(Br)cc2[nH]1)c1ccccc1`: the IC50 is 49.2 µM (inactive). Besides, the IC50 under setting [1] amounted to 94 µM. This compound showed an IC90 under setting [2] of more than 100 µM. The IC90 under setting [3] came out at 54.9 µM.

On to `Cc1ccc(/C=C/C(=O)OCC(=O)NC(C)c2ccccc2)o1` (configuration not stated), for which the IC50 was > 100 µM (inactive). Also, the concentration for half-maximal inhibition (IC50) under setting [1] is more than 100 µM. The compound also showed an IC90 under setting [2] of more than 100 µM. The IC90 under setting [3] was more than 100 µM.

For `CC(C)(C)OC(=O)N1CCC(NC(=O)c2[nH]cnc2C(=O)Nc2ccccc2)CC1`, the IC50 was > 100 µM (inactive). Besides, under setting [1], the IC50 was more than 100 µM. Under setting [2], this compound had a concentration for an effect of 90% (IC90) of more than 100 µM. The compound also yielded a 90% effect concentration (IC90) under setting [3] of more than 100 µM.

Consider `COC(=O)c1c(C)n(-c2ccc(C)cc2)c2ccc(O)cc12`, for which the IC50 was > 100 µM (inactive). Also, the IC50 under setting [1] is more than 100 µM. Besides, under setting [2], the concentration for an effect of 90% (IC90) was more than 100 µM. Further, under setting [3], the concentration for an effect of 90% (IC90) was more than 100 µM.

With `CC(C)OCc1c(C(=O)Nc2nccs2)oc2ccccc12`, the IC50 was 97.9 µM (inactive). Further, under setting [1], the IC50 is more than 100 µM. The IC90 under setting [2] was more than 100 µM. The compound further showed a 90% effect concentration (IC90) under setting [3] of more than 100 µM.

`CCOc1ccc(-c2cnc3n2CCC3)cc1`: the 50% inhibitory concentration (IC50) was 35 µM. This compound also came in with an IC50 under setting [1] of more than 100 µM. Also, under setting [2], the IC90 is more than 100 µM. The compound further came in with an IC90 under setting [3] of more than 100 µM.

Take `CCCSc1nnc(NC(=O)c2sc3nc(-c4cccs4)ccc3c2N)s1`: the IC50 is 62.8 µM (inactive). Moreover, the IC50 under setting [1] is more than 100 µM. Besides, the IC90 under setting [2] was more than 100 µM. Besides, under setting [3], the IC90 is more than 100 µM.

For `Cc1nnc(SCc2cccc(Cl)c2)n(N)c1=O`, the IC50 was 4.43 µM. This compound registered an IC50 under setting [1] of 12 µM. In addition, under setting [2], the IC90 came to 18.1 µM. The compound also showed a 90% effect concentration (IC90) under setting [3] of 10.1 µM.

As for `CCOC(=O)c1c(C)oc2c1c(CN1CCN(C(=O)OCC)CC1)c(O)c1ccccc12`, the IC50 is 51.5 µM (inactive). Moreover, the concentration for half-maximal inhibition (IC50) under setting [1] is 51.2 µM. Under setting [2], this compound returned a 90% effect concentration (IC90) of more than 100 µM. Under setting [3], the concentration for an effect of 90% (IC90) is more than 100 µM.

As to `CCOc1ccc2nc(N3CCC(C(=O)NC4CCCCC4)CC3)sc2c1`, the IC50 was > 100 µM (inactive). This compound returned an IC50 under setting [1] of more than 100 µM. The IC90 under setting [2] was more than 100 µM. Also, the IC90 under setting [3] is more than 100 µM.

Consider `NC(N)=NS(=O)(=O)c1ccc(N)cc1`, for which the IC50 is > 100 µM (inactive). Under setting [1], the concentration for half-maximal inhibition (IC50) was more than 100 µM. The IC90 under setting [2] is more than 100 µM. Also, the concentration for an effect of 90% (IC90) under setting [3] is more than 100 µM.

With `Cn1c(=O)c2ccccc2n2c(CCl)nnc12`, the half-maximal inhibitory concentration (IC50) is 1.22 µM. Under setting [1], this compound had an IC50 of 3.19 µM. Besides, the concentration for an effect of 90% (IC90) under setting [2] is more than 100 µM. This compound also had an IC90 under setting [3] of 4.65 µM.

Take `O=C(Nc1ccc(S(=O)(=O)N2CCCCC2)cc1)C1CCCN(C(=O)c2ccc(Cl)cc2)C1` (configuration not stated): the IC50 is > 100 µM (inactive). Also, the IC50 under setting [1] is more than 100 µM. Under setting [2], this compound came in with an IC90 of more than 100 µM. Also, under setting [3], the IC90 was more than 100 µM.

For the compound `CCc1ccc(NC(=O)C2C3/C=C\CCCCC32)cc1` (configuration not stated), the IC50 was 72 µM (inactive). The compound also gave an IC50 under setting [1] of more than 100 µM. Moreover, the concentration for an effect of 90% (IC90) under setting [2] is more than 100 µM. This compound came in with an IC90 under setting [3] of more than 100 µM.

`C[C@@H]1CC=C[C@H]2[C@H]1C(=O)N(Cc1ccccc1)[C@H]2c1ccc(/C=C/c2ccccc2)cc1F`: the IC50 was > 100 µM (inactive). Under setting [1], the IC50 is more than 100 µM. The same compound returned an IC90 under setting [2] of more than 100 µM. In addition, the 90% effect concentration (IC90) under setting [3] was more than 100 µM.

For the compound `COc1ccccc1C(=O)Nc1sc2c(c1C(=O)NCc1ccco1)CCCC2`, the IC50 was > 100 µM (inactive). This compound also yielded an IC50 under setting [1] of more than 100 µM. The compound further registered a concentration for an effect of 90% (IC90) under setting [2] of more than 100 µM. The IC90 under setting [3] was more than 100 µM.
